Read-outs that look alike come from different tables or passages of the source.
Biological target: NSD2 [1-1365] (Homo sapiens (Human), UniProt O96028)
Assay: LC-MS/MS-based NSD2 enzymatic assay (SAH production)
Format: biochemical
Settings: read-out: NSD2 IC50
Experimental: LC-MS/MS-Based NSD2 Enzymatic Assay
This assay employed LC-MS/MS technology to monitor the SAH production from the NSD2 enzymatic reaction. The enzymatic reaction was performed in white proxiplate plus 384-well microplate (Perkin Elmer). The reaction mixture (10 μL) were composed of 8 nM NSD2 [1-1365], […] SAM (USB, 10601) and 400 nM nucleosome (purified from mouse liver) in reaction buffer (20 mM Tris-HCl, pH at 8.0, 0.01% Tween 20, 10 mM MgCl2, 50 mM NaCl, 1 mM DTT, 1 mM TCEP (pH7.5)). After 90 min incubation at room temperature, 3 μL quenching solution containing 2.5% TFA with 320 nM d4-SAH was added to stop the reaction.
For the inhibition assay, compound solutions were transferred into the wells by Mosquito™ (TTP LabTech). The inhibition assays were carried out by preincubating various concentrations of the inhibitor with 5 uL reaction mixture containing 16 nM NSD2 [1-1365] and 2 uM SAM (USB, 10601) in reaction buffer. After 20 min preincubation, 5 uL solution containing 800 nM nucleosome (purified from mouse liver) in reaction buffer was added to initiate the reaction. The reaction was stopped by 3 μL quenching solution containing 2.5% TFA with 320 nM d4-SAH after 90 min.
The SAH production from the enzymatic assays were monitored by LC-MS/MS on an API 4000 triple quadrupole mass spec with Turbolon Spray (Applied Biosystem) coupled with Prominenece UFLC(Shimazu). Liquid chromatography was performed on a Chromolith FastGradient HPLC column (RP-18e, 25-2 mm, from Merck) at a flow rate of 0.8 ml/min. The column was connected directly to the turbo ion electrospray operating in the positive-ion mode. Mobile phase A is 0.1% FA and 2% methanol in water and mobile phase B is 0.1% FA in ACN. Injection volume was 3 μl and the autosampler was kept at 4 degree. SAH and d4-SAH were simultaneously monitored. Data were acquired and processed by Analyst software.
To quantify the formed SAH, d4-SAH was added as internal standard (IS). A series of SAH (Sigma, A9384) solution at varying concentration (1-500 nM in reaction buffer) was mixed with quenching solution mentioned above. Then LC-MS/MS was carried out on API 4000 LC/MS/MS system to detect both SAH and d4-SAH. The plot of SAH peak area/IS peak area vs SAH concentration was used to generate the normalization factor of SAH. The SAH production from real enzymatic reaction was derived from the standard curve of SAH. The down-limit of our system for the detection of SAH is around 1-2 nM, and the linear range can reach up to 500 nM.

Chain of NSD2 [1-1365] (O96028 whole entry): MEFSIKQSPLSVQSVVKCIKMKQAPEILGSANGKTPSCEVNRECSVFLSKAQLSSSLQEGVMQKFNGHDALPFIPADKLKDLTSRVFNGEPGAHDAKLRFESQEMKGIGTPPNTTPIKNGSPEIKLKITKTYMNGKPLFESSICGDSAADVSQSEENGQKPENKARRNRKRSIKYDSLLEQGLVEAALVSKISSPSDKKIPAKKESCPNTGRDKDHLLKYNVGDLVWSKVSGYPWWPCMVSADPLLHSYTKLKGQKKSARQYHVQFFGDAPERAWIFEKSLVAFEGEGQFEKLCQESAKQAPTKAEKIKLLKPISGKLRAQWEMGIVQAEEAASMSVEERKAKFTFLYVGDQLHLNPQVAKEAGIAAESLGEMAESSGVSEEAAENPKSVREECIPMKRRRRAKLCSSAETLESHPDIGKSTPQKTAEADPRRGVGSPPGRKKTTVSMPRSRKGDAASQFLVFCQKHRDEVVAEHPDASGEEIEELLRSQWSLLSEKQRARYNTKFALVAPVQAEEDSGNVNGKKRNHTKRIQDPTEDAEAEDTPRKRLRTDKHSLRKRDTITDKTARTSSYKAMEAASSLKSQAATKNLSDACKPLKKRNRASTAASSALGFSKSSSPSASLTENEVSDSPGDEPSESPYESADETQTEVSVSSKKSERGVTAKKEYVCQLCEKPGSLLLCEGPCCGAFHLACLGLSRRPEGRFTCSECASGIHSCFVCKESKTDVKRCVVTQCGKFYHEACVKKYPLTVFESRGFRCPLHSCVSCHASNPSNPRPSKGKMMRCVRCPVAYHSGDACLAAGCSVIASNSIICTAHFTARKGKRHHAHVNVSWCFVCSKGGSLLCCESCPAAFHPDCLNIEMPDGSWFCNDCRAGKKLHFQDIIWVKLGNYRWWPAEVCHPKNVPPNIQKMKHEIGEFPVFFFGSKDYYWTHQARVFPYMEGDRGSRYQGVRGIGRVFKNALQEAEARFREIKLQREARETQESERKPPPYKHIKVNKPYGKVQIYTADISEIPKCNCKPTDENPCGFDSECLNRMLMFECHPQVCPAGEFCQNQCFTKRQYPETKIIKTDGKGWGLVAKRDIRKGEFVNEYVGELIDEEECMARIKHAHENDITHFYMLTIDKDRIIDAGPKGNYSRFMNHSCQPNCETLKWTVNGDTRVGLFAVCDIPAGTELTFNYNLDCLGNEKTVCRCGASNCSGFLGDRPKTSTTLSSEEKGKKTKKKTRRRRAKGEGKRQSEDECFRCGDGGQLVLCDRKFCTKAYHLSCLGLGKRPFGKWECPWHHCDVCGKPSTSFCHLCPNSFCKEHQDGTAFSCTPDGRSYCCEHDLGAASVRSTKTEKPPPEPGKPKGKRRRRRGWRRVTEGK

| IC50 (NSD2 biochemical activity, class symbols) [nM] | IC50 [nM] | Compound |
| --- | --- | --- |
| 10 to 1000 | – | COc1cc(F)c(-c2ncc(N3CCC[C@](N)([C@H](O)C(F)F)C3)c(Cn3cnc4c(N)ncnc43)c2F)cc1F [Example 149, (S)-1-((R)-3-amino-1-(4-((6-amino-9H-purin-9-yl)methyl)-6-(2,5-difluoro-4-methoxyphenyl)-5-fluoropyridin-3-yl)piperidin-3-yl)-2,2-difluoroethan-1-ol] |
| – | 10 to 1000 | Nc1ncnc2c1ncn2Cc1cc(-c2ccc3c(c2)CCO3)ncc1N1CCC[C@](N)(c2cccc(Cl)n2)C1 [Example 185, (R)-9-((5-(3-amino-3-(6-chloropyridin-2-yl)piperidin-1-yl)-2-(2,3-dihydrobenzofuran-5-yl)pyridin-4-yl)methyl)-9H-purin-6-amine] |
| – | 10 to 1000 | Nc1ncnc2c1ncn2Cc1cc(-c2ccc(F)cc2)ncc1N1CCCC(N)(c2ccc(F)cn2)C1 (centres unmarked) [Example 189, 9-((5-(3-amino-3-(5-fluoropyridin-2-yl)piperidin-1-yl)-2-(4-fluorophenyl)pyridin-4-yl)methyl)-9H-purin-6-amine] |
| – | 10 to 1000 | Nc1ncnc2c1ncn2Cc1cc(C2CC2)ncc1N1CCC[C@](N)(c2cccc(Cl)n2)C1 [Example 204, (R)-9-((5-(3-amino-3-(6-chloropyridin-2-yl)piperidin-1-yl)-2-cyclopropylpyridin-4-yl)methyl)-9H-purin-6-amine] |
| – | 10 to 1000 | COc1ccc(-c2cc(Cn3cnc4c(N)ncnc43)c(N3CCC[C@](N)(c4ccc(F)c(C)n4)C3)cn2)cc1F [Example 207, (R)-9-((5-(3-amino-3-(5-fluoro-6-methylpyridin-2-yl)piperidin-1-yl)-2-(3-fluoro-4-methoxyphenyl)pyridin-4-yl)methyl)-9H-purin-6-amine] |
| – | 10 to 1000 | Nc1ncnc2c1ncn2Cc1cc(-c2ccc3nccn3c2)ncc1N1CCCC(N)(c2cccc(Cl)n2)C1 (centres unmarked) [Example 210, 9-((5-(3-amino-3-(6-chloropyridin-2-yl)piperidin-1-yl)-2-(imidazo[1,2-a]pyridin-6-yl)pyridin-4-yl)methyl)-9H-purin-6-amine] |
| – | 10 to 1000 | CC(O)c1ccc([C@@]2(N)CCCN(c3cnc(-c4ccc(F)c(F)c4)cc3Cn3cnc4c(N)ncnc43)C2)nc1F (stereo partly drawn) [Example 215, 1-(6-((R)-3-amino-1-(4-((6-amino-9H-purin-9-yl)methyl)-6-(3,4-difluorophenyl)pyridin-3-yl)piperidin-3-yl)-2-fluoropyridin-3-yl)ethan-1-ol] |
| – | 10 to 1000 | Cn1cnc2ccc(-c3cc(Cn4cnc5c(N)ncnc54)c(N4CCCC(N)(c5cccc(Cl)n5)C4)cn3)cc21 (centres unmarked) [Example 220, 9-((5-(3-amino-3-(6-chloropyridin-2-yl)piperidin-1-yl)-2-(1-methyl-1H-benzo[d]imidazol-6-yl)pyridin-4-yl)methyl)-9H-purin-6-amine] |
| – | 10 to 1000 | Nc1ncnc2c1ncn2Cc1cc(-c2ccc3ccnn3c2)ncc1N1CCCC(N)(c2cccc(Cl)n2)C1 (centres unmarked) [Example 222, 9-((5-(3-amino-3-(6-chloropyridin-2-yl)piperidin-1-yl)-2-(pyrazolo[1,5-a]pyridin-6-yl)pyridin-4-yl)methyl)-9H-purin-6-amine] |
| – | 10 to 1000 | N#Cc1ccc(-c2cc(Cn3cnc4c(N)ncnc43)c(N3CCCC(N)(c4cccc(Cl)n4)C3)cn2)cc1F (centres unmarked) [Example 223] |
| – | 1 to 10 | Nc1ncnc2c1ncn2Cc1cc(-c2ccc(F)c(F)c2)ncc1N1CCCC(N)(c2ccc(Cl)nn2)C1 (centres unmarked) [Example 249, 9-((5-(3-amino-3-(6-chloropyridazin-3-yl)piperidin-1-yl)-2-(3,4-difluorophenyl)pyridin-4-yl)methyl)-9H-purin-6-amine] |
| – | 10 to 1000 | CCc1cncc([C@@]2(N)CCCN(c3cnc(-c4ccc(F)cc4)cc3Cn3cnc4c(N)ncnc43)C2)n1 [Example 250, (R)-9-((5-(3-amino-3-(6-ethylpyrazin-2-yl)piperidin-1-yl)-2-(4-fluorophenyl)pyridin-4-yl)methyl)-9H-purin-6-amine] |
| – | 10 to 1000 | CCc1cncc([C@@]2(N)CCCN(c3cnc(-c4ccc(F)cc4)cc3Cn3cnc4c(N)nccc43)C2)n1 [Example 256, (R)-1-((5-(3-amino-3-(6-ethylpyrazin-2-yl)piperidin-1-yl)-2-(4-fluorophenyl)pyridin-4-yl)methyl)-1H-imidazo[4,5-c]pyridin-4-amine] |
| – | > 1000 | Nc1nccc2c1ncn2Cc1cc(N2CCC2)ncc1N1CCCC(N)(c2cccc(Cl)n2)C1 (centres unmarked) [Example 265, 1-((5-(3-amino-3-(6-chloropyridin-2-yl)piperidin-1-yl)-2-(azetidin-1-yl)pyridin-4-yl)methyl)-1H-imidazo[4,5-c]pyridin-4-amine] |
| – | 1 to 10 | Nc1ncnc2c1ncn2Cc1cc(-c2ccc(F)cc2)ncc1N1CCC[C@](N)(c2ccn(C(F)F)n2)C1 [Example 273, (R)-9-((5-(3-amino-3-(1-(difluoromethyl)-1H-pyrazol-3-yl)piperidin-1-yl)-2-(4-fluorophenyl)pyridin-4-yl)methyl)-9H-purin-6-amine] |
| – | 1 to 10 | Cn1ccc([C@@]2(N)CCCN(c3cnc(-c4ccc(F)c(F)c4)cc3Cn3cnc4c(N)ncnc43)C2)n1 [Example 275, (R)-9-((5-(3-amino-3-(1-methyl-1H-pyrazol-3-yl)piperidin-1-yl)-2-(3,4-difluorophenyl)pyridin-4-yl)methyl)-9H-purin-6-amine] |
| – | 10 to 1000 | CCn1ccc([C@@]2(N)CCCN(c3cnc(C4CC4)cc3Cn3cnc4c(N)nccc43)C2)n1 [Example 276, (R)-1-((5-(3-amino-3-(1-ethyl-1H-pyrazo1-3-yl)piperidin-1-yl)-2-cyclopropylpyridin-4-yl)methyl)-1H-imidazo[4,5-c]pyridin-4-amine] |
| – | 1 to 10 | Nc1nccc2c1ncn2Cc1cc(-c2ccc(F)cc2)ncc1N1CCC[C@](N)(c2ccn(C(F)F)n2)C1 [Example 279, (R)-1-((5-(3-amino-3-(1-(difluoromethyl)-1H-pyrazol-3-yl)piperidin-1-yl)-2-(4-fluorophenyl)pyridin-4-yl)methyl)-1H-imidazo[4,5-c]pyridin-4-amine] |
| – | 10 to 1000 | Nc1ncnc2c1ncn2Cc1cc(-c2ccc(F)c(F)c2)ncc1N1CCCC(N)(C(F)CF)C1 (centres unmarked) [Example 287, 9-((5-(3-amino-3-(1,2-difluoroethyl)piperidin-1-yl)-2-(3,4-difluorophenyl)pyridin-4-yl)methyl)-9H-purin-6-amine] |
| – | 10 to 1000 | Nc1ncnc2c1ncn2Cc1cc(-c2ccc(F)c(F)c2)ncc1N1CCC[C@]2(COC(=O)N2)C1 [Example 292, (R)-7-(4-((6-amino-9H-purin-9-yl)methyl)-6-(3,4-difluorophenyl)pyridin-3-yl)-3-oxa-1,7-diazaspiro[4.5]decan-2-one] |
| – | > 1000 | CS(=O)(=O)CC1(N)CCCN(c2cnc(-c3ccc(F)c(F)c3)cc2Cn2cnc3c(N)ncnc32)C1 (centres unmarked) [Example 298, 9-((5-(3-amino-3-((methylsulfonyl)methyl)piperidin-1-yl)-2-(3,4-difluorophenyl)pyridin-4-yl)methyl)-9H-purin-6-amine] |
| – | 10 to 1000 | Nc1ncnc2c1ncn2Cc1cc(-c2ccc(F)c(F)c2)ncc1N1CCCC(N)(C(F)C(F)F)C1 (centres unmarked) [Example 300, 9-((5-(3-amino-3-(1,2,2-trifluoroethyl)piperidin-1-yl)-2-(3,4-difluorophenyl)pyridin-4-yl)methyl)-9H-purin-6-amine] |
| – | 10 to 1000 | Nc1ncnc2c1ncn2Cc1cc(-c2ccc(F)c(F)c2)ncc1N1CCC(O)C(N)(CC(F)F)C1 (centres unmarked) [Example 301, 3-amino-1-(4-((6-amino-9H-purin-9-yl)methyl)-6-(3,4-difluorophenyl)pyridin-3-yl)-3-(2,2-difluoroethyl)piperidin-4-ol] |
| – | > 1000 | C[C@@H]1CN(c2cnc(-c3ccc(F)cc3)cc2Cn2cnc3c(N)ncnc32)C[C@@](N)(CC(F)F)C1 [Example 307, 9-((5-((3S,5S)-3-amino-3-(2,2-difluoroethyl)-5-methylpiperidin-1-yl)-2-(4-fluorophenyl)pyridin-4-yl)methyl)-9H-purin-6-amine] |
| – | 10 to 1000 | Nc1ncnc2c1ncn2Cc1cc(-c2ccc(F)c(F)c2)ncc1N1C[C@H](N)C[C@H](F)C1 [Example 309, 9-((5-((3R,5S)-3-amino-5-fluoropiperidin-1-yl)-2-(3,4-difluorophenyl)pyridin-4-yl)methyl)-9H-purin-6-amine] |
| – | > 1000 | C[C@H]1CC[C@@H](N)CN1c1cnc(-c2ccc(F)c(F)c2)cc1Cn1cnc2c(N)ncnc21 [Example 310, 9-((5-((2S,5R)-5-amino-2-methylpiperidin-1-yl)-2-(3,4-difluorophenyl)pyridin-4-yl)methyl)-9H-purin-6-amine] |

Source: patent US11420970B1 (NOVARTIS AG, priority 2019, dated 2022)
